Read-outs that look alike come from different tables or passages of the source.
What was measured:
EGF Receptor = target: T1, EGF Receptor (Homo sapiens, UniProt P00533); experiment: EGF receptor phosphorylation assay in whole cells (EGFR-NIH3T3 assay); assay type: cell-based; conditions: EGF receptor kinase activity in whole cells
T1 construct: expressed in transfected cells; host or cells: NIH3T3 cells (EGFR-NIH3T3)
Experimental: Assay Measuring Phosphorylating Function of EGF Receptor
EGF Receptor kinase activity (EGFR-NIH3T3 assay) in whole cells was measured as described in detail in PCT Publication WO9640116, filed Jun. 5, 1996, by Tang et al., and entitled “Indolinone Compounds for the Treatment of Disease,” incorporated herein by reference in its entirety, including any drawings.
The IC50 values measured in the EGF receptor phosphorylation assay are depicted in Table 2: […]

RAF-1 = target: T2, RAF-1 (Homo sapiens, UniProt P04049); experiment: RAF-1 ELISA assay (RAF-1 phosphorylation of MEK and MAPK); assay type: biochemical; conditions: RAF-1 phosphorylation assay, lysates from RAS/RAF infected Sf9 cells, T-MEK and His-MAPK substrates
T2 construct: made in house; host or cells: Sf9 (Spodoptera frugiperda) insect cells co-infected with RAS and RAF recombinant baculoviruses
T2 sequence (P04049 whole entry): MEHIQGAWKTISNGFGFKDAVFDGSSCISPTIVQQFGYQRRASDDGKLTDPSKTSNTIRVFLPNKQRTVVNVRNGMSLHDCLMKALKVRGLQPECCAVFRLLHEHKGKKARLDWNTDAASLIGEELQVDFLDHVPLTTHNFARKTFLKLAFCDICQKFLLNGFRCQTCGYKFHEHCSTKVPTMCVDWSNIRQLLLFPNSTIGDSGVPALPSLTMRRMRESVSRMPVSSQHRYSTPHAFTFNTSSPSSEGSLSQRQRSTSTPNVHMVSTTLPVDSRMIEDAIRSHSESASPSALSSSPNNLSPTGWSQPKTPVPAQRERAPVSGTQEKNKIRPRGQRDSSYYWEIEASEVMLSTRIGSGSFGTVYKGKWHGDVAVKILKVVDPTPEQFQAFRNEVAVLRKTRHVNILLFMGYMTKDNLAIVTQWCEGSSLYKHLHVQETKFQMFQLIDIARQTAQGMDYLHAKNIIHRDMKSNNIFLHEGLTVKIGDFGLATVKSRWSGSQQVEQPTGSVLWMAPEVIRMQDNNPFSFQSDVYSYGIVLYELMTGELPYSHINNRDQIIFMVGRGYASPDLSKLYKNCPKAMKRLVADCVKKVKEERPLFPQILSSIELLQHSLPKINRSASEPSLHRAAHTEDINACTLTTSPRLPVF
Description: Assay Measuring Phosphorylating Function of RAF
The following assay reports the amount of RAF-catalyzed phosphorylation of its target protein MEK as well as MEK's target MAPK. The RAF gene sequence is described in Bonner et al., 1985, Molec. Cell. Biol. 5: 1400-1407, and is readily accessible in multiple gene sequence data banks. Construction of the nucleic acid vector and cell lines utilized for this portion of the invention are fully described in Morrison et al., 1988, Proc. Natl. Acad. Sci. USA 85: 8855-8859.
All of the following steps were conducted at room temperature unless specifically indicated.
1. ELISA plate coating: ELISA wells are coated with 100 μL of Sheep anti mouse affinity purified antiserum (1 μg/100 μL coating buffer) over night at 4° C. […]
11. […] Insert the holder into radioactive detection apparatus and quantify the radioactive phosphorous on the filter mats.
Alternatively, 40 μL aliquots from individual wells of the assay plate can be transferred to the corresponding Positions on the phosphocellulose filter mat. […] Insert the holder into a detection device and quantify the radioactive phosphorous on the filter mats.
IC50 values were measured according to the protocol for the following azabenzimidazole-based compounds in the RAF-1 ELISA assay: [drawing 5] […] The IC50 values measured in the RAF-1 phosphorylation assay are depicted in Table 1: […]

[1] = tested on: 3T3/H-Ras (NIH 3T3 clone 7 cells expressing genomic fragment of oncogenic H-Ras); experiment: Growth of NIH 3T3 cells over expressing H-Ras (SRB); assay type: cell-based; conditions: Mus musculus, NIH3T3, 72 h; cell growth, 2% calf serum, 3 days incubation
Experimental: Assay Measuring the Effect of Azabenzimidazole-Based Compounds on the Growth of Cells Expression RAS
The following assay measures growth rates for NIH-3T3 cells expressing RAS. The purpose of the assay is to determine the effects of compounds on the growth of NIH 3T3 cells over expressing H-Ras.
(§1) • 96-well flat bottom sterile plates • 96-well round bottom sterile plates • sterile 25 mL or 100 mL reservoir • pipets, multi-channel pipetman • sterile pipet tips • sterile 15 mL and 50 mL tubes Reagents • 0.4% SRB in 1% acetic acid • 10 mM Tris base • 10% TCA • 1% acetic acid • sterile DMSO (Sigma) • compound in DMSO (100 mM or less stock solution) • Trypsin-EDTA (GIBCO BRL) Cell Line • 3T3/H-Ras (NIH 3T3 clone 7 cells expressing genomic fragment of oncogenic H-Ras).
The cells can be constructed using the following protocol: • 1. Subclone a gene fragment encoding Ras into a commercially available vector that will stably transfect NIH-3T3 cells. The fragment is from the genomic transforming allele of cHa-ras. • 2. Transfect NIH-3T3 cells with the subcloned vector by a calcium phosphate method. Select cells expressing the Ras construct in 2% serum in DMEM. Visible foci are observed after 2 weeks. Pool the transformed cells to generate a stably transformed cell line. […]
6. Read plates on Dynatech ELISA Plate REader at 570 nm with reference at 630 nm.

[2] = tested on: A549 human lung carcinoma cells; experiment: Growth of A549 cells (SRB); assay type: cell-based; conditions: cell growth
Experimental: Assay Measuring Effect of Azabenzimidazole-Based Compounds on Growth of A549 Cells
The following assay measures growth rates for A549 cells. The purpose of the assay is to determine the effects of compounds on the growth of A549 human lung carcinoma cells. A549 cells are readily accessible from commercial sources, such as ATCC (CCL185).
as §1, with “tips” for “tips •”, “Line and Growth Medium” for “Line”, “A549 human lung carcinoma” for “3T3/H-Ras (NIH 3T3 clone 7”, “(ATCC CCL185) • 10% fetal calf serum in Ham's F12-K Protocol Day 0: Cell Plating This part” for “expressing genomic fragment”, “assay is carried out in a laminar flow hood.” for “oncogenic H-Ras).”
1. Trypsinize cells. Transfer 200 μL of cell suspension to 10 mL of isotone. Count cells with a Coulter Counter.
2. Dilute cells in growth medium to 20,000 cell/mL. Transfer 100 μL of cells to each well in a 96-well flat bottom plate to give 2000 cells/well.
3. Use half of plate (4 rows) for each compound and quadruplicate wells for each compound concentration, and a set of 4 wells for medium control.
4. […]
6. Read plates on Dynatech ELISA Plate Reader at 570 nm with reference at 630 nm.

T1 sequence (P00533 25-1210): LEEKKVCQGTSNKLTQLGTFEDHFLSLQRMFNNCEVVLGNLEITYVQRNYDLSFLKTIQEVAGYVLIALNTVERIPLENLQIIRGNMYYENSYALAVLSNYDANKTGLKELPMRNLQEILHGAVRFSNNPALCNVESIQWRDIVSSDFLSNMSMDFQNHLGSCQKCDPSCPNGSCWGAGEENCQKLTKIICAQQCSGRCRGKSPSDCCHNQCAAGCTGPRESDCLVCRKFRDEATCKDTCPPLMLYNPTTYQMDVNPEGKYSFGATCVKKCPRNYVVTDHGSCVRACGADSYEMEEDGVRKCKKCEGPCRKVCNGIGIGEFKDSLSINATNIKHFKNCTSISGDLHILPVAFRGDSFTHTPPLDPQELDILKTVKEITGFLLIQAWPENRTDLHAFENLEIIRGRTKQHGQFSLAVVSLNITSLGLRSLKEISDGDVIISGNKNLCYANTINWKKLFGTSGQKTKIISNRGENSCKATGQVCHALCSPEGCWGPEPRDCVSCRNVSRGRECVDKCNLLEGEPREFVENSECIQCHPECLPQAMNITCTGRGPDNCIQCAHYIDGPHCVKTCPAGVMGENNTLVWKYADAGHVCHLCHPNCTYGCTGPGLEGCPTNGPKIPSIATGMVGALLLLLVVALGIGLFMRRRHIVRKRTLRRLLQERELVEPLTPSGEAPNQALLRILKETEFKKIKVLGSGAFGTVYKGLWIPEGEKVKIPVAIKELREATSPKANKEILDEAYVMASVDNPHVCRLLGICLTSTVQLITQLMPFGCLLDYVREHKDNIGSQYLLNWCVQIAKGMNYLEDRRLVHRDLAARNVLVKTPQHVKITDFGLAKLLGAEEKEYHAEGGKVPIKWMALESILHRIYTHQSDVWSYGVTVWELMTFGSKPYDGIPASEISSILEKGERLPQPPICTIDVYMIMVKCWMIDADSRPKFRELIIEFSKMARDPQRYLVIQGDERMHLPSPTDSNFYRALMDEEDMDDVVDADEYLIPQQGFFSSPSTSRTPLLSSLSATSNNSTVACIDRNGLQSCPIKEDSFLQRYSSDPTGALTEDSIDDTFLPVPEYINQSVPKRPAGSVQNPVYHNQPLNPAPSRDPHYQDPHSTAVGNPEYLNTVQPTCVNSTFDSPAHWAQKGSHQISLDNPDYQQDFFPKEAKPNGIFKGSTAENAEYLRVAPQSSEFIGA

IC50 (EGF Receptor): > 100 µM
IC50 (RAF-1): 6.1 µM
melting point: > 280 °C (dec.)
IC50 ([2]; 2% FBS, read-out: IC50 (μM) A549 (2% FBS)): 65 µM
IC50 ([2]; 10% fetal calf serum in Ham's F12-K, read-out: IC50 (μM) A549): 22 µM
SMILES: COC(=O)Nc1nc2ccc(Oc3ccccc3)nc2[nH]1 [Compound A-3]
IC50 [1]: 40 µM
